Laboratory results published in PubChem BioAssay (NCI).
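Growth conditions: 96-well plates. Treatment: test compound, 48 hours, 5 concentrations. Analysis: linear interpolation between bracketing concentrations; unreached endpoints set to highest concentration. TGI marks complete inhibition of growth.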

Tests used:
Assay in all cases: NCI-60 cell line screen, 48 h
OVCAR-5 ovarian = system: OVCAR-5 ovarian
T-47D breast = system: T-47D breast
SNB-75 CNS = system: SNB-75 CNS
NCI-H23 lung = system: NCI-H23 lung
MDA-N = system: MDA-N
HCT-15 colon = system: HCT-15 colon
RXF 393 renal = system: RXF 393 renal
OVCAR-8 ovarian = system: OVCAR-8 ovarian
EKVX NSCLC = system: EKVX NSCLC
ACHN renal = system: ACHN renal
A549 NSCLC = system: A549 NSCLC
U251 CNS = system: U251 CNS
SN12C renal = system: SN12C renal
HT29 colon = system: HT29 colon
SF-539 CNS = system: SF-539 CNS
SK-MEL-28 melanoma = system: SK-MEL-28 melanoma
DU-145 prostate = system: DU-145 prostate
SNB-19 CNS = system: SNB-19 CNS
MALME-3M melanoma = system: MALME-3M melanoma
KM12 colon = system: KM12 colon
LOX IMVI melanoma = system: LOX IMVI melanoma
MCF7 breast = system: MCF7 breast
UO-31 renal = system: UO-31 renal
COLO 205 colon = system: COLO 205 colon
CAKI-1 renal = system: CAKI-1 renal
IGROV1 ovarian = system: IGROV1 ovarian
UACC-257 melanoma = system: UACC-257 melanoma
HOP-62 NSCLC = system: HOP-62 NSCLC
HCT-116 colon = system: HCT-116 colon
NCI-H522 lung = system: NCI-H522 lung
MDA-MB-231 breast = system: MDA-MB-231 breast
SK-OV-3 ovarian = system: SK-OV-3 ovarian
UACC-62 melanoma = system: UACC-62 melanoma
SW-620 colon = system: SW-620 colon
SK-MEL-2 melanoma = system: SK-MEL-2 melanoma
M14 melanoma = system: M14 melanoma
SF-268 CNS = system: SF-268 CNS
PC-3 prostate = system: PC-3 prostate
SF-295 CNS = system: SF-295 CNS
BT-549 breast = system: BT-549 breast
OVCAR-4 ovarian = system: OVCAR-4 ovarian
A498 renal = system: A498 renal
NCI/ADR-RES ovarian = system: NCI/ADR-RES ovarian
TK-10 renal = system: TK-10 renal
786-0 renal = system: 786-0 renal
MDA-MB-435 = system: MDA-MB-435
HS 578T breast = system: HS 578T breast
NCI-H226 lung = system: NCI-H226 lung
SK-MEL-5 melanoma = system: SK-MEL-5 melanoma
HOP-92 NSCLC = system: HOP-92 NSCLC
RPMI-8226 leukemia = system: RPMI-8226 leukemia
SR leukemia = system: SR leukemia
K-562 leukemia = system: K-562 leukemia
HCC-2998 colon = system: HCC-2998 colon
NCI-H460 lung = system: NCI-H460 lung
MOLT-4 leukemia = system: MOLT-4 leukemia

COCN1C(=O)[C@@H]2CCCN2C(=O)c2cc(N)ccc21
TGI (OVCAR-5 ovarian): > 100 µM
TGI (T-47D breast): > 100 µM
TGI (SNB-75 CNS): > 100 µM
TGI (NCI-H23 lung): > 100 µM
TGI (MDA-N): > 100 µM
TGI (HCT-15 colon): > 100 µM
TGI (RXF 393 renal): > 100 µM
TGI (OVCAR-8 ovarian): > 100 µM
TGI (EKVX NSCLC): > 100 µM
TGI (ACHN renal): > 100 µM
TGI (A549 NSCLC): > 100 µM
TGI (U251 CNS): > 100 µM
TGI (SN12C renal): > 100 µM
TGI (HT29 colon): > 100 µM
TGI (SF-539 CNS): > 100 µM
TGI (SK-MEL-28 melanoma): > 100 µM
TGI (DU-145 prostate): > 100 µM
TGI (SNB-19 CNS): > 100 µM
TGI (MALME-3M melanoma): > 100 µM
TGI (KM12 colon): > 100 µM
TGI (LOX IMVI melanoma): > 100 µM
TGI (MCF7 breast): > 100 µM
TGI (UO-31 renal): > 100 µM
TGI (COLO 205 colon): 8.86 µM
TGI (CAKI-1 renal): > 100 µM
TGI (IGROV1 ovarian): > 100 µM
TGI (UACC-257 melanoma): > 100 µM
TGI (HOP-62 NSCLC): > 100 µM
TGI (HCT-116 colon): > 100 µM
TGI (NCI-H522 lung): > 100 µM
TGI (MDA-MB-231 breast): > 100 µM
TGI (SK-OV-3 ovarian): > 100 µM
TGI (UACC-62 melanoma): > 100 µM
TGI (SW-620 colon): > 100 µM
TGI (SK-MEL-2 melanoma): > 100 µM
TGI (M14 melanoma): > 100 µM
TGI (SF-268 CNS): > 100 µM
TGI (PC-3 prostate): > 100 µM
TGI (SF-295 CNS): > 100 µM
TGI (BT-549 breast): > 100 µM
TGI (OVCAR-4 ovarian): > 100 µM
TGI (A498 renal): > 100 µM
TGI (NCI/ADR-RES ovarian): > 100 µM
TGI (TK-10 renal): > 100 µM
TGI (786-0 renal): > 100 µM
TGI (MDA-MB-435): > 100 µM
TGI (HS 578T breast): > 100 µM

Cc1cn(CC2=NCC(C)N2)c(=O)[nH]c1=O (stereo not drawn)
TGI (OVCAR-5 ovarian): > 100 µM
TGI (T-47D breast): > 100 µM
TGI (SNB-75 CNS): > 100 µM
TGI (NCI-H23 lung): > 100 µM
TGI (NCI-H226 lung): > 100 µM
TGI (MDA-N): > 100 µM
TGI (HCT-15 colon): > 100 µM
TGI (RXF 393 renal): > 100 µM
TGI (OVCAR-8 ovarian): > 100 µM
TGI (EKVX NSCLC): > 100 µM
TGI (ACHN renal): > 100 µM
TGI (A549 NSCLC): > 100 µM
TGI (U251 CNS): > 100 µM
TGI (SN12C renal): > 100 µM
TGI (SK-MEL-5 melanoma): > 100 µM
TGI (HT29 colon): > 100 µM
TGI (SK-MEL-28 melanoma): > 100 µM
TGI (DU-145 prostate): > 100 µM
TGI (SNB-19 CNS): > 100 µM
TGI (MALME-3M melanoma): > 100 µM
TGI (HOP-92 NSCLC): > 100 µM
TGI (LOX IMVI melanoma): > 100 µM
TGI (MCF7 breast): > 100 µM
TGI (RPMI-8226 leukemia): > 100 µM
TGI (UO-31 renal): > 100 µM
TGI (COLO 205 colon): > 100 µM
TGI (SR leukemia): > 100 µM
TGI (IGROV1 ovarian): > 100 µM
TGI (UACC-257 melanoma): > 100 µM
TGI (K-562 leukemia): > 100 µM
TGI (HOP-62 NSCLC): > 100 µM
TGI (HCC-2998 colon): > 100 µM
TGI (NCI-H460 lung): > 100 µM
TGI (HCT-116 colon): > 100 µM
TGI (NCI-H522 lung): > 100 µM
TGI (MDA-MB-231 breast): > 100 µM
TGI (SK-OV-3 ovarian): > 100 µM
TGI (UACC-62 melanoma): > 100 µM
TGI (SW-620 colon): > 100 µM
TGI (SK-MEL-2 melanoma): > 100 µM
TGI (M14 melanoma): > 100 µM
TGI (MOLT-4 leukemia): > 100 µM
TGI (SF-268 CNS): > 100 µM
TGI (PC-3 prostate): > 100 µM
TGI (SF-295 CNS): > 100 µM
TGI (BT-549 breast): > 100 µM
TGI (A498 renal): > 100 µM
TGI (NCI/ADR-RES ovarian): > 100 µM
TGI (TK-10 renal): > 100 µM
TGI (786-0 renal): > 100 µM
TGI (HS 578T breast): > 100 µM
